Laboratory results taken from PMC10504751, “Chalcone/1,3,4-Oxadiazole/Benzimidazole hybrids as novel anti-proliferative agents inducing apoptosis and inhibiting EGFR & BRAFV^600E” (BMC Chemistry, 2023).

How the values were obtained:
[1] = MTT cell viability assay in normal cells; format: cell-based; details: human, MCF-10A normal mammary epithelial cells
Procedure: To check the safety of prepared compounds and evaluate their selectivity towards tumor cells over normal ones, the toxicity of compounds 7a-x were evaluated by 3-(4,5-Dimethylthiazole-2-yl)-2,5-diphenyltetrazol (MTT) assay on the normal human mammary epithelial cell line (MCF-10 A). The human mammary epithelial cell lines were incubated for four days with a concentration of 50 µM of compounds 7a-x.
MTT assay was done to determine the effect of the synthesized compounds on the viability of mammary epithelial cells (MCF-10 A). Compounds 7a-x were incubated with MCF-10 A cells for 4 days at 50 µM concentration, and the viability of cells was determined. See Appendix A.
MTT assay was carried out to study the effect of compounds on mammary epithelial cells (MCF-10A).^7, ^8 The medium in which cells were propagated contained Dulbecco's modified Eagle's medium (DMEM)/ Ham's F-12 medium (1:1) supplemented with epidermal growth factor (20 ng/mL), hydrocortisone (500 ng/mL), insulin (10 μg/mL), 2 mM glutamine and 10% foetal calf serum. After every 2-3 days, the cells were passaged using trypsin ethylenediamine tetra acetic acid (EDTA). The cells were seeded at a density of 10^4 cells mL^-1 in flat-bottomed culture plates containing 96 wells each. After 24 h, medium was removed from the plates and the compounds in (in 0.1% DMSO) were added (in 200 μL medium to yield a final concentration of 0.1% v/v) to the wells of plates. A single compound was designated with four wells followed by incubation of plates for 96h at 37°C. After incubation, medium was removed completely from the plates followed by addition of MTT (0.4 mg/mL in medium) to each well and subsequent incubation of plates for 3h. MTT (along with the medium) was removed and DMSO (150μL) was added to each well of the culture plates, followed by vortexing and subsequent measurement of absorbance (at 540 nm) using microplate reader.

CCRF-CEM = assay: NCI one-dose SRB anti-proliferative screen; format: cell-based; details: Homo sapiens; CCRF-CEM, Leukemia; NCI one dose; read-out: Cell growth inhibition %
Procedure: (§1) The twenty-four synthesized compounds were submitted to the National Cancer Institute (NCI), USA. Eighteen hybrids 7a-h, 7k-r, 7u, and 7v were selected by NCI for one-dose assessment of their anti-proliferative activities at 10 µM dose by Sulforhodamine B colorimetric assay. The assessment was performed in 60 cell lines derived from nine tumor subpanels, comprising lung, leukemia, melanoma, colon, renal, CNS, prostate, breast, and ovarian cancer cell lines.
(§2) The methodology of the NCI anti-proliferative screening has been described in details elsewhere (http://www.dtp.nci.nih.gov).

OVCAR-4 = assay: NCI one-dose SRB anti-proliferative screen; format: cell-based; details: Homo sapiens; OVCAR-4, Ovarian Cancer; NCI one dose; read-out: Cell growth inhibition %
Procedure: as §1, §2

SNB-19 = assay: NCI one-dose SRB anti-proliferative screen; format: cell-based; details: Homo sapiens; SNB-19, CNS Cancer; NCI one dose; read-out: Cell growth inhibition %
Procedure: as §1, §2

HCT-15 = assay: NCI one-dose SRB anti-proliferative screen; format: cell-based; details: Homo sapiens; HCT-15, Colon cancer; NCI one dose; read-out: Cell growth inhibition %
Procedure: as §1, §2

UACC-62 = assay: NCI one-dose SRB anti-proliferative screen; format: cell-based; details: Homo sapiens; UACC-62, Melanoma; NCI one dose; read-out: Cell growth inhibition %
Procedure: as §1, §2

COLO 205 = assay: NCI one-dose SRB anti-proliferative screen; format: cell-based; details: Homo sapiens; COLO 205, Colon cancer; NCI one dose; read-out: Cell growth inhibition %
Procedure: as §1, §2

NCI-H522 = assay: NCI one-dose SRB anti-proliferative screen; format: cell-based; details: Homo sapiens; NCI-H522, Non-Small Cell Lung Cancer; NCI one dose; read-out: Cell growth inhibition %
Procedure: as §1, §2

NCI-H322M = assay: NCI one-dose SRB anti-proliferative screen; format: cell-based; details: Homo sapiens; NCI-H322M, Non-Small Cell Lung Cancer; NCI one dose; read-out: Cell growth inhibition %
Procedure: as §1, §2

SF-295 = assay: NCI one-dose SRB anti-proliferative screen; format: cell-based; details: Homo sapiens; SF-295, CNS Cancer; NCI one dose; read-out: Cell growth inhibition %
Procedure: as §1, §2

NCI-H226 = assay: NCI one-dose SRB anti-proliferative screen; format: cell-based; details: Homo sapiens; NCI-H226, Non-Small Cell Lung Cancer; NCI one dose; read-out: Cell growth inhibition %
Procedure: as §1, §2

HOP-62 = assay: NCI one-dose SRB anti-proliferative screen; format: cell-based; details: Homo sapiens; HOP-62, Non-Small Cell Lung Cancer; NCI one dose; read-out: Cell growth inhibition %
Procedure: as §1, §2

SN12C = assay: NCI one-dose SRB anti-proliferative screen; format: cell-based; details: Homo sapiens, SN 12C, Renal cancer, NCI one dose, read-out: Cell growth inhibition %
Procedure: as §1, §2

MALME-3M = assay: NCI one-dose SRB anti-proliferative screen; format: cell-based; details: Homo sapiens; MALME-3M, Melanoma; NCI one dose; read-out: Cell growth inhibition %
Procedure: as §1, §2

NCI-H23 = assay: NCI one-dose SRB anti-proliferative screen; format: cell-based; details: Homo sapiens; NCI-H23, Non-Small Cell Lung Cancer; NCI one dose; read-out: Cell growth inhibition %
Procedure: as §1, §2

SK-MEL-5 = assay: NCI one-dose SRB anti-proliferative screen; format: cell-based; details: Homo sapiens; SK-MEL-5, Melanoma; NCI one dose; read-out: Cell growth inhibition %
Procedure: as §1, §2

A549/ATCC = assay: NCI one-dose SRB anti-proliferative screen; format: cell-based; details: Homo sapiens; A549/ATCC, Non-Small Cell Lung Cancer; NCI one dose; read-out: Cell growth inhibition %
Procedure: as §1, §2

SK-OV-3 = assay: NCI one-dose SRB anti-proliferative screen; format: cell-based; details: Homo sapiens; SK-OV-3, Ovarian Cancer; NCI one dose; read-out: Cell growth inhibition %
Procedure: as §1, §2

HCC-2998 = assay: NCI one-dose SRB anti-proliferative screen; format: cell-based; details: Homo sapiens; HCC-2998, Colon cancer; NCI one dose; read-out: Cell growth inhibition %
Procedure: as §1, §2

EKVX = assay: NCI one-dose SRB anti-proliferative screen; format: cell-based; details: Homo sapiens; EKVX, Non-Small Cell Lung Cancer; NCI one dose; read-out: Cell growth inhibition %
Procedure: as §1, §2

SNB-75 = assay: NCI one-dose SRB anti-proliferative screen; format: cell-based; details: Homo sapiens; SNB-75, CNS Cancer; NCI one dose; read-out: Cell growth inhibition %
Procedure: as §1, §2

U251 = assay: NCI one-dose SRB anti-proliferative screen; format: cell-based; details: Homo sapiens, U-251; U251, CNS Cancer; NCI one dose; read-out: Cell growth inhibition %
Procedure: as §1, §2

O=C(CSc1nnc(-c2ccc3[nH]c(-c4ccccc4)nc3c2)o1)Nc1ccc(C(=O)/C=C/c2ccccc2)cc1 [Compound 7a, 2-{5-[2-Phenyl-1 H-benzo[d]imidazol-5-yl]-1,3,4-oxadiazol-2-ylthio}-N-{4-[(E)-3-phenylacryloyl]phenyl}acetamide]
viability at 96 h, 50 µM [1]: 91%
melting point: 273 to 275 °C
inhibition at 10 µM (CCRF-CEM): 0%
inhibition at 10 µM (OVCAR-4): 0%
inhibition at 10 µM (SNB-19): 0.06%
inhibition at 10 µM (HCT-15): 0%
inhibition at 10 µM (UACC-62): 2.91%
inhibition at 10 µM (COLO 205): 0%
inhibition at 10 µM (NCI-H522): 6.57%
inhibition at 10 µM (NCI-H322M): 0%
inhibition at 10 µM (SF-295): 0%
inhibition at 10 µM (NCI-H226): 0%
inhibition at 10 µM (HOP-62): 0%
inhibition at 10 µM (SN12C): 2.04%
inhibition at 10 µM (MALME-3M): 5.5%
inhibition at 10 µM (NCI-H23): 0%
inhibition at 10 µM (SK-MEL-5): 1.68%
inhibition at 10 µM (A549/ATCC): 0%
inhibition at 10 µM (SK-OV-3): 0%
inhibition at 10 µM (HCC-2998): 0%
inhibition at 10 µM (EKVX): 0%
inhibition at 10 µM (SNB-75): 0%
inhibition at 10 µM (U251): 1.83%

O=C(CSc1nnc(-c2ccc3[nH]c(-c4ccccc4)nc3c2)o1)Nc1ccc(C(=O)/C=C/c2ccc(Cl)cc2)cc1 [Compound 7b, 2-{5-[2-Phenyl-1 H-benzo[d]imidazol-5-yl]-1,3,4-oxadiazol-2-ylthio}-N-{4-[(E)-3-(4-chlorophenyl)acryloyl]phenyl}acetamide]
viability at 96 h, 50 µM [1]: 88%
melting point: 263 to 264 °C
inhibition at 10 µM (CCRF-CEM): 0%
inhibition at 10 µM (OVCAR-4): 0%
inhibition at 10 µM (SNB-19): 3.92%
inhibition at 10 µM (HCT-15): 0%
inhibition at 10 µM (UACC-62): 11.6%
inhibition at 10 µM (COLO 205): 0%
inhibition at 10 µM (NCI-H522): 11.6%
inhibition at 10 µM (NCI-H322M): 0%
inhibition at 10 µM (SF-295): 0%
inhibition at 10 µM (NCI-H226): 3.63%
inhibition at 10 µM (HOP-62): 0%
inhibition at 10 µM (SN12C): 9.8%
inhibition at 10 µM (MALME-3M): 0%
inhibition at 10 µM (NCI-H23): 0%
inhibition at 10 µM (SK-MEL-5): 3.35%
inhibition at 10 µM (A549/ATCC): 0%
inhibition at 10 µM (SK-OV-3): 0%
inhibition at 10 µM (HCC-2998): 0%
inhibition at 10 µM (EKVX): 0%
inhibition at 10 µM (SNB-75): 0%
inhibition at 10 µM (U251): 7.14%

COc1ccc(/C=C/C(=O)c2ccc(NC(=O)CSc3nnc(-c4ccc5[nH]c(-c6ccccc6)nc5c4)o3)cc2)cc1 [Compound 7c, 2-{5-[2-Phenyl-1 H-benzo[d]imidazol-5-yl]-1,3,4-oxadiazol-2-ylthio}-N-{4-[(E)-3-(4-methoxyphenyl)acryloyl]phenyl}acetamide]
viability at 96 h, 50 µM [1]: 87%
melting point: 175 to 177 °C
inhibition at 10 µM (CCRF-CEM): 34.5%
inhibition at 10 µM (OVCAR-4): 0%
inhibition at 10 µM (SNB-19): 7.28%
inhibition at 10 µM (HCT-15): 3.81%
inhibition at 10 µM (UACC-62): 9.5%
inhibition at 10 µM (COLO 205): 0%
inhibition at 10 µM (NCI-H522): 8.81%
inhibition at 10 µM (NCI-H322M): 0%
inhibition at 10 µM (SF-295): 1.65%
inhibition at 10 µM (NCI-H226): 2.2%
inhibition at 10 µM (HOP-62): 0%
inhibition at 10 µM (SN12C): 3.32%
inhibition at 10 µM (MALME-3M): 8.64%
inhibition at 10 µM (NCI-H23): 7.79%
inhibition at 10 µM (SK-MEL-5): 16.8%
inhibition at 10 µM (A549/ATCC): 0%
inhibition at 10 µM (SK-OV-3): 0%
inhibition at 10 µM (HCC-2998): 0%
inhibition at 10 µM (EKVX): 0%
inhibition at 10 µM (SNB-75): 0%
inhibition at 10 µM (U251): 17.2%

COc1ccc(/C=C/C(=O)c2ccc(NC(=O)CSc3nnc(-c4ccc5[nH]c(-c6ccccc6)nc5c4)o3)cc2)cc1OC [Compound 7d, 2-{5-[2-Phenyl-1 H-benzo[d]imidazol-5-yl]-1,3,4-oxadiazol-2-ylthio}-N-{4-[(E)-3-(3,4-dimethoxyphenyl)acryloyl]phenyl}acetamide]
viability at 96 h, 50 µM [1]: 89%
melting point: 156 to 158 °C
inhibition at 10 µM (CCRF-CEM): 9.62%
inhibition at 10 µM (OVCAR-4): 0%
inhibition at 10 µM (SNB-19): 3.18%
inhibition at 10 µM (HCT-15): 0%
inhibition at 10 µM (UACC-62): 5.31%
inhibition at 10 µM (COLO 205): 0%
inhibition at 10 µM (NCI-H522): 3.75%
inhibition at 10 µM (NCI-H322M): 0%
inhibition at 10 µM (SF-295): 0%
inhibition at 10 µM (NCI-H226): 0%
inhibition at 10 µM (HOP-62): 0%
inhibition at 10 µM (SN12C): 0%
inhibition at 10 µM (MALME-3M): 2.37%
inhibition at 10 µM (NCI-H23): 0%
inhibition at 10 µM (SK-MEL-5): 0%
inhibition at 10 µM (A549/ATCC): 0%
inhibition at 10 µM (SK-OV-3): 0%
inhibition at 10 µM (HCC-2998): 0%
inhibition at 10 µM (EKVX): 0%
inhibition at 10 µM (SNB-75): 0%
inhibition at 10 µM (U251): 5.02%
